Calls of active or inactive are those of the source.
Legend:
Assay type in all cases: functional, organism-based
[1] = system: Candida albicans; assay: Antifungal activity against Candida albicans at 20 ug/ml; details: dose 20.0 µg/ml
[2] = system: Escherichia coli; assay: Antibacterial activity against Escherichia coli at 20 ug/ml; details: dose 20.0 µg/ml
[3] = system: Pseudomonas aeruginosa; assay: Antibacterial activity against Pseudomonas aeruginosa at 20 ug/ml; details: dose 20.0 µg/ml
[4] = system: Staphylococcus aureus; assay: Antibacterial activity against Staphylococcus aureus at 20 ug/ml; details: dose 20.0 µg/ml
[5] = system: Influenza A virus; assay: Antiviral activity against Influenza virus H1N1 at 100 uM

Measured: Activity

O=C1NC(=O)[C@H](Cc2ccccc2O)n2c1nc1ccccc1c2=O
inactive: all assays above

CN1C(=O)c2nc3ccccc3c(=O)n2[C@H](Cc2ccccc2O)C1=O
inactive: all assays above

CN1C(=O)c2nc3ccccc3c(=O)n2[C@@H](Cc2ccccc2O)C1=O
inactive: all assays above

O=C1NC(=O)[C@@H](Cc2ccccc2O)n2c1nc1ccccc1c2=O
inactive: all assays above

— ChEMBL document CHEMBL4825664, “17-Hydroxybrevianamide N and Its N1-Methyl Derivative, Quinazolinones from a Soft-Coral-Derived Aspergillus sp. Fungus: 13S Enantiomers as the True Natural Products” (J Nat Prod, 2021)
